From the supplement of paper PMC11061612

Columns and labels:
Assay in all cases: Bliss excess, mean over the matrix (fraction); higher = more synergy
[1] = tested on: SAS (Oral Cavity Carcinoma)
Summary of the method: (§1)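 Bliss excess equals the observed combination effect minus the expected value EA + EB − EA·EB, where EA and EB are the effects of each agent alone. Combination Emax is the second-highest inhibition within the matrix. Inhibition was scaled from CellTiter-Glo 2.0 luminescence, with 0 set by vehicle wells and 1 by blank wells, after 72 hours of two-drug dosing of cells plated in 1536-well plates.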

[2] = tested on: OE21 (Esophageal Squamous Cell Carcinoma)
Summary of the method: as §1

[3] = tested on: SNU-449 (Hepatocellular Carcinoma)
Summary of the method: as §1

[4] = tested on: TGBC1TKB (Biliary Tract Carcinoma)
Summary of the method: as §1

[5] = tested on: Hs-746T (Gastric Carcinoma)
Summary of the method: as §1

[6] = tested on: BE2-M17 (Neuroblastoma)
Summary of the method: as §1

[7] = tested on: NCI-H524 (Small Cell Lung Carcinoma)
Summary of the method: as §1

[8] = tested on: MPP-89 (Mesothelioma)
Summary of the method: as §1

[9] = tested on: WSU-NHL (B-Cell Non-Hodgkin's Lymphoma)
Summary of the method: as §1

[10] = tested on: LS-123 (Colorectal Carcinoma)
Summary of the method: as §1

Structure (SMILES) | Bliss excess [1] | Bliss excess [2] | Bliss excess [3] | Bliss excess [4] | Bliss excess [5] | Bliss excess [6] | Bliss excess [7] | Bliss excess [8] | Bliss excess [9] | Bliss excess [10]
Cc1c2c(nn1C)CSCc1cc(n(C)n1)CSc1cc(c3ccccc3c1)OCCCc1c(C(=O)O)n(C)c3c-2c(Cl)ccc13 [AZD5991] + CC1(C)CCC(CN2CCN(c3ccc(C(=O)NS(=O)(=O)c4ccc(NCC5CCOCC5)c([N+](=O)[O-])c4)c(Oc4cnc5[nH]ccc5c4)c3)CC2)=C(c2ccc(Cl)cc2)C1 [Venetoclax] (first compound max 1 µM, 7x7, partner max 1 µM) | 0.0098 | 0.0182 | -0.0286 | -0.0252 | -0.0882 | 0.0276 | 0.0725 | -0.0065 | 0.0602 | -0.026
Cc1c2c(nn1C)CSCc1cc(n(C)n1)CSc1cc(c3ccccc3c1)OCCCc1c(C(=O)O)n(C)c3c-2c(Cl)ccc13 [AZD5991] + C[C@@H]1COCCN1C2=NC(=NC(=C2)C3(CC3)[S@](=N)(=O)C)C4=C5C=CNC5=NC=C4 [AZD6738] (first compound max 1 µM, 7x7, partner max 10 µM) | -0.0367 | 0.0157 | 0.0175 | 0.0537 | 0.0423 | 0.0574 | -0.0395 | -0.0426 | -0.0352 | -0.0046
CC1(C)CCC(CN2CCN(c3ccc(C(=O)NS(=O)(=O)c4ccc(NCC5CCOCC5)c([N+](=O)[O-])c4)c(Oc4cnc5[nH]ccc5c4)c3)CC2)=C(c2ccc(Cl)cc2)C1 [Venetoclax] + CN(C)CCCOc1ccc(-c2ccc3ncc4c(c3c2)n(C2CCOCC2)c(=O)n4C)cn1 [AZD0156] (first compound max 1 µM, 7x7, partner max 1 µM) | -0.033 | -0.0165 | -0.07 | -0.0186 | -0.0043 | 0.0093 | 0.0028 | -0.0182 | -0.0402 | -0.0169
Cc1c2c(nn1C)CSCc1cc(n(C)n1)CSc1cc(c3ccccc3c1)OCCCc1c(C(=O)O)n(C)c3c-2c(Cl)ccc13 [AZD5991] + C1CN(CCC1(C(=O)N[C@@H](CCO)C2=CC=C(C=C2)Cl)N)C3=NC=NC4=C3C=CN4 [Capivasertib] (first compound max 1 µM, 7x7, partner max 3 µM) | -0.0165 | 0.0577 | -0.0238 | -0.0159 | 0.0327 | -0.0068 | 0.014 | 0.0003 | -0.0777 | 0.0203
Cc1c2c(nn1C)CSCc1cc(n(C)n1)CSc1cc(c3ccccc3c1)OCCCc1c(C(=O)O)n(C)c3c-2c(Cl)ccc13 [AZD5991] + CN(C)CCCOc1ccc(-c2ccc3ncc4c(c3c2)n(C2CCOCC2)c(=O)n4C)cn1 [AZD0156] (first compound max 1 µM, 7x7, partner max 1 µM) | 0.0142 | 0.0133 | -0.0243 | -0.0332 | 0.0008 | 0.0023 | 0.0301 |  | -0.0375 | -0.01
Cc1c2c(nn1C)CSCc1cc(n(C)n1)CSc1cc(c3ccccc3c1)OCCCc1c(C(=O)O)n(C)c3c-2c(Cl)ccc13 [AZD5991] + C[C@@H](Nc1cc(F)cc(F)c1)c1cc(C(=O)N(C)C)cc2c(=O)cc(N3CCOCC3)oc12 [AZD8186] (first compound max 1 µM, 7x7, partner max 3 µM) | 0.0062 | 0.0258 | -0.078 | -0.0236 | 0.0106 | -0.0355 | -0.0289 | 0.0083 | -0.0366 | -0.0006
Cn1cnc2c(F)c(Nc3ccc(Br)cc3Cl)c(C(=O)NOCCO)cc21 [Selumetinib] + C[C@@H]1COCCN1C2=NC(=NC(=C2)C3(CC3)[S@](=N)(=O)C)C4=C5C=CNC5=NC=C4 [AZD6738] (first compound max 10 µM, 7x7, partner max 10 µM) | -0.012 | 0.0134 | -0.0403 | -0.0031 | 0.0382 | 0.0348 | -0.0293 | -0.0424 | -0.0042 | 0.0709
CC1(C)CCC(CN2CCN(c3ccc(C(=O)NS(=O)(=O)c4ccc(NCC5CCOCC5)c([N+](=O)[O-])c4)c(Oc4cnc5[nH]ccc5c4)c3)CC2)=C(c2ccc(Cl)cc2)C1 [Venetoclax] + Cc1cc2ncnn2cc1Nc1ncc2c(n1)n(C1CCOCC1)c(=O)n2C [AZD7648] (first compound max 1 µM, 7x7, partner max 10 µM) | -0.0055 | -0.0076 | -0.0699 | -0.043 | -0.0131 | 0.0002 | -0.005 | 0.0173 | -0.082 | -0.0543
CN(CCO)CC[C@H](CSc1ccccc1)Nc1ccc(S(=O)(=O)NC(=O)c2ccc(N3CCC([C@@H](O)c4ccccc4-c4ccc(Cl)cc4)CC3)cc2)cc1S(=O)(=O)C(F)(F)F [AZD4320] + C1CN(CCC1(C(=O)N[C@@H](CCO)C2=CC=C(C=C2)Cl)N)C3=NC=NC4=C3C=CN4 [Capivasertib] (first compound max 1 µM, 7x7, partner max 3 µM) | -0.0369 | 0.0073 | -0.0742 | -0.0306 | 0.0094 | 0.006 | -0.0517 | -0.0234 | -0.0413 | 
Cc1c2c(nn1C)CSCc1cc(n(C)n1)CSc1cc(c3ccccc3c1)OCCCc1c(C(=O)O)n(C)c3c-2c(Cl)ccc13 [AZD5991] + CCN(CCO)CCCOc1ccc2c(Nc3cc(CC(=O)Nc4cccc(F)c4)[nH]n3)ncnc2c1 [AZD2811] (first compound max 1 µM, 7x7, partner max 1 µM) | -0.0092 | 0.0345 | -0.0041 | -0.0141 | -0.0477 | 0.0668 | -0.0016 | 0.0367 | -0.0206 | 
